Data published in patent USRE48461E1, “Modulation of androgen receptor expression” (Ionis Pharmaceuticals, Inc., priority 2012, dated 2021).
Oligonucleotides are written 5' to 3', each unit as a sugar letter and its base; * is a phosphorothioate linkage, no mark a phosphodiester; rarer units and linkages stand in square brackets, end groups in braces. Plain capitals give the bases only. l = locked nucleic acid (LNA); k = constrained ethyl (cEt); [5mC] = 5-methylcytosine; d = 2'-deoxy (DNA)

Tests used:
AR mRNA [1] = assay: Dose-dependent antisense inhibition of human AR in HuVEC cells (electroporation, qRT-PCR RTS3559, IC50); format: cell-based; settings: HuVEC, ~16 h, Table 4
Method in brief: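 HuVEC cells dosed with antisense oligonucleotides by electroporation and treated approximately 16 hours. AR mRNA quantified by real-time qPCR with primer probe set RTS3559 and normalised to total RNA by RIBOGREEN; IC50 from dose-response.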

AR mRNA [2] = assay: Antisense inhibition of human AR in HuVEC cells, single concentration (electroporation, qRT-PCR RTS3559); format: cell-based; settings: 500 nM ASO, electroporation, ~24 h, Table 2
Method in brief: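 HuVEC cells electroporated with antisense oligonucleotides at a single concentration. AR mRNA quantified by qRT-PCR using human primer-probe set RTS3559 and normalised to total RNA content by RIBOGREEN.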

KLK3 mRNA = KLK3 mRNA (AR target gene) in C4-2B MR cells; format: cell-based, human
KLK2 mRNA = KLK2 mRNA (AR target gene) in C4-2B MR cells; format: cell-based, human
total AR mRNA = assay: Total (full-length) AR mRNA in C4-2B MR cells, free uptake; format: cell-based, human; settings: free uptake, 24 hrs
Protocol: Cells were plated at a density of 40,000 cells per well in 96-well plates and cultured in RPMI1640 medium with 10% fetal bovine serum. […] ISIS 549372, ISIS 549458, ISIS 549434, and ISIS 554221 were each added at 0.04 μM, 0.20 μM, 1.00 μM, and 5.00 μM concentrations of antisense oligonucleotide to culture media for free uptake by the cells. […] After a treatment period of 24 hrs, total AR mRNA levels were measured by quantitative real-time PCR using primer probe set RTS3559.

C4-2B MR cells = assay: Proliferation of MDV3100-resistant C4-2B cells (CellTiter 96); format: cell-based, human; settings: 6 days
Protocol: ISIS 549372, ISIS 549434, ISIS 549458, and ISIS 554221 were each added to the culture media at 0.04 μM, 0.20 μM, 1.00 μM, and 5.00 μM concentration of antisense oligonucleotide. ISIS 347526 was included as a negative control. After a treatment period of 6 days, the proliferative capacity of the cancer cells was measured with using CellTiter 96® AQueous One Solution Cell Proliferation kit (Promega), following the manufacturer's instructions. Results are presented in Table 41 as percent inhibition of proliferation, relative to non-treated cells.

[3] = system: prostate-specific antigen (PSA) mRNA; assay: PSA mRNA levels in LMR20 cells; format: cell-based, human; settings: LMR20 cells; for PSA mRNA levels (% baseline value) after treatment with DHT: DHT 10 nM 72 hrs; for PSA mRNA levels (% baseline value) after treatment with R1881: R1881 10 nM 72 hrs; for PSA mRNA levels (% baseline value) of cells without AR agonist treatment: no AR agonist
Protocol: LMR20 cells were plated at 1,500 cells per well in phenol red-free medium with CSS. […] Results are presented in Tables 43-45 as mRNA levels expressed as a percentage of the baseline values. mRNA levels may be lowered or increased after treatment.

AR mRNA [4] = assay: AR mRNA levels in LMR20 cells (with/without DHT or R1881); format: cell-based, human; settings: LMR20 cells; for AR mRNA levels (% baseline value) after treatment with DHT: DHT 10 nM 72 hrs; for AR mRNA levels (% baseline value) after treatment with R1881: R1881 10 nM 72 hrs; for AR mRNA levels (% baseline value) of cells without AR agonist treatment: no AR agonist
Protocol: (§1) LMR20 cells were plated at 1,500 cells per well in phenol red-free medium with CSS.

TMPRSS2 mRNA = TMPRSS2 mRNA levels in LMR20 cells; format: cell-based, human; settings: LMR20 cells; for TMPRSS2 mRNA levels (% baseline value) after treatment with DHT: DHT 10 nM 72 hrs; for TMPRSS2 mRNA levels (% baseline value) after treatment with R1881: R1881 10 nM 72 hrs; for TMPRSS2 mRNA levels (% baseline value) of cells without AR agonist treatment: no AR agonist
Protocol: as §1

AR mRNA [5] = assay: AR mRNA in LnCaP cells by free uptake (hAR_LTS00943); format: cell-based, human; settings: 24 hrs
Protocol: Cells were plated at a concentration of 4,000 cells/well in 96-well plates. ISIS oligonucleotides, specified in Table 68, were added individually at 0.02 μM, 0.10 μM, 0.50 μM, 2.50 μM, or 10.00 μM. After an incubation period of 24 hrs, mRNA levels were measured using primer probe set hAR_LTS00943.

549434 (k[5mC]*kT*kA*dA*dA*d[5mC]*dT*dT*d[5mC]*d[5mC]*d[5mC]*dG*dT*kG*kG*k[5mC]) [compound 549434]
percent inhibition of AR (AR mRNA [1]; 55.6 nM): 38% | percent inhibition of AR (AR mRNA [1]; 166.7 nM): 60% | percent inhibition of AR (AR mRNA [1]; 500.0 nM): 86% | percent inhibition of AR (AR mRNA [1]; 1500.0 nM): 96% | IC50 (AR mRNA [1]): 85 nM | % inhibition (AR mRNA [2]): 96% | Percent inhibition of KLK3 mRNA in C4-2B MR cells (KLK3 mRNA; 0.04 μM): 10% | Percent inhibition of KLK3 mRNA in C4-2B MR cells (KLK3 mRNA; 0.20 μM): 47% | Percent inhibition of KLK3 mRNA in C4-2B MR cells (KLK3 mRNA; 1.00 μM): 42% | Percent inhibition of KLK3 mRNA in C4-2B MR cells (KLK3 mRNA; 5.00 μM): 64% | Percent inhibition of KLK2 mRNA in C4-2B MR cells (KLK2 mRNA; 0.04 μM): 5% | Percent inhibition of KLK2 mRNA in C4-2B MR cells (KLK2 mRNA; 0.20 μM): 27% | Percent inhibition of KLK2 mRNA in C4-2B MR cells (KLK2 mRNA; 1.00 μM): 49% | Percent inhibition of KLK2 mRNA in C4-2B MR cells (KLK2 mRNA; 5.00 μM): 68% | Percent inhibition of full-length AR mRNA in C4-2B MR cells (total AR mRNA; 0.04 μM): 9% | Percent inhibition of full-length AR mRNA in C4-2B MR cells (total AR mRNA; 0.20 μM): 36% | Percent inhibition of full-length AR mRNA in C4-2B MR cells (total AR mRNA; 1.00 μM): 66% | Percent inhibition of full-length AR mRNA in C4-2B MR cells (total AR mRNA; 5.00 μM): 88% | Percent inhibition of C4-2B MR cell proliferation (C4-2B MR cells; 0.04 μM): 0% | Percent inhibition of C4-2B MR cell proliferation (C4-2B MR cells; 0.20 μM): 0% | Percent inhibition of C4-2B MR cell proliferation (C4-2B MR cells; 1.00 μM): 21% | Percent inhibition of C4-2B MR cell proliferation (C4-2B MR cells; 5.00 μM): 22%

554221 (ACCAAGTTTCTTCAGC; sugars from the 5' end l3 d10 l3, all phosphorothioate, methylation of C not given here) [compound 554221]
PSA mRNA levels (% baseline value) after treatment with DHT ([3]; ASO 0.04 μM): 97 % baseline value | PSA mRNA levels (% baseline value) after treatment with DHT ([3]; ASO 0.20 μM): 86 % baseline value | PSA mRNA levels (% baseline value) after treatment with DHT ([3]; ASO 1.0 μM): 64 % baseline value | PSA mRNA levels (% baseline value) after treatment with DHT ([3]; ASO 5.0 μM): 64 % baseline value | PSA mRNA levels (% baseline value) after treatment with R1881 ([3]; ASO 0.04 μM): 100 % baseline value | PSA mRNA levels (% baseline value) after treatment with R1881 ([3]; ASO 0.20 μM): 93 % baseline value | PSA mRNA levels (% baseline value) after treatment with R1881 ([3]; ASO 1.0 μM): 80 % baseline value | PSA mRNA levels (% baseline value) after treatment with R1881 ([3]; ASO 5.0 μM): 57 % baseline value | PSA mRNA levels (% baseline value) of cells without AR agonist treatment ([3]; ASO 0.04 μM): 106 % baseline value | PSA mRNA levels (% baseline value) of cells without AR agonist treatment ([3]; ASO 0.20 μM): 118 % baseline value | PSA mRNA levels (% baseline value) of cells without AR agonist treatment ([3]; ASO 1.0 μM): 58 % baseline value | PSA mRNA levels (% baseline value) of cells without AR agonist treatment ([3]; ASO 5.0 μM): 87 % baseline value | Percent inhibition of KLK3 mRNA in C4-2B MR cells (KLK3 mRNA; 0.04 μM): 0% | Percent inhibition of KLK3 mRNA in C4-2B MR cells (KLK3 mRNA; 0.20 μM): 0% | Percent inhibition of KLK3 mRNA in C4-2B MR cells (KLK3 mRNA; 1.00 μM): 47% | Percent inhibition of KLK3 mRNA in C4-2B MR cells (KLK3 mRNA; 5.00 μM): 56% | AR mRNA levels (% baseline value) after treatment with DHT (AR mRNA [4]; ASO 0.04 μM): 137 % baseline value | AR mRNA levels (% baseline value) after treatment with DHT (AR mRNA [4]; ASO 0.20 μM): 135 % baseline value | AR mRNA levels (% baseline value) after treatment with DHT (AR mRNA [4]; ASO 1.0 μM): 136 % baseline value | AR mRNA levels (% baseline value) after treatment with DHT (AR mRNA [4]; ASO 5.0 μM): 100 % baseline value | AR mRNA levels (% baseline value) after treatment with R1881 (AR mRNA [4]; ASO 0.04 μM): 131 % baseline value | AR mRNA levels (% baseline value) after treatment with R1881 (AR mRNA [4]; ASO 0.20 μM): 133 % baseline value | AR mRNA levels (% baseline value) after treatment with R1881 (AR mRNA [4]; ASO 1.0 μM): 124 % baseline value | AR mRNA levels (% baseline value) after treatment with R1881 (AR mRNA [4]; ASO 5.0 μM): 99 % baseline value | AR mRNA levels (% baseline value) of cells without AR agonist treatment (AR mRNA [4]; ASO 0.04 μM): 124 % baseline value | AR mRNA levels (% baseline value) of cells without AR agonist treatment (AR mRNA [4]; ASO 0.20 μM): 140 % baseline value | AR mRNA levels (% baseline value) of cells without AR agonist treatment (AR mRNA [4]; ASO 1.0 μM): 132 % baseline value | AR mRNA levels (% baseline value) of cells without AR agonist treatment (AR mRNA [4]; ASO 5.0 μM): 98 % baseline value | Percent inhibition of KLK2 mRNA in C4-2B MR cells (KLK2 mRNA; 0.04 μM): 24% | Percent inhibition of KLK2 mRNA in C4-2B MR cells (KLK2 mRNA; 0.20 μM): 25% | Percent inhibition of KLK2 mRNA in C4-2B MR cells (KLK2 mRNA; 1.00 μM): 56% | Percent inhibition of KLK2 mRNA in C4-2B MR cells (KLK2 mRNA; 5.00 μM): 66% | Percent inhibition of full-length AR mRNA in C4-2B MR cells (total AR mRNA; 0.04 μM): 0% | Percent inhibition of full-length AR mRNA in C4-2B MR cells (total AR mRNA; 0.20 μM): 0% | Percent inhibition of full-length AR mRNA in C4-2B MR cells (total AR mRNA; 1.00 μM): 0% | Percent inhibition of full-length AR mRNA in C4-2B MR cells (total AR mRNA; 5.00 μM): 23% | Percent inhibition of C4-2B MR cell proliferation (C4-2B MR cells; 0.04 μM): 11% | Percent inhibition of C4-2B MR cell proliferation (C4-2B MR cells; 0.20 μM): 12% | Percent inhibition of C4-2B MR cell proliferation (C4-2B MR cells; 1.00 μM): 0% | Percent inhibition of C4-2B MR cell proliferation (C4-2B MR cells; 5.00 μM): 24% | TMPRSS2 mRNA levels (% baseline value) after treatment with DHT (TMPRSS2 mRNA; ASO 0.04 μM): 121 % baseline value | TMPRSS2 mRNA levels (% baseline value) after treatment with DHT (TMPRSS2 mRNA; ASO 0.20 μM): 118 % baseline value | TMPRSS2 mRNA levels (% baseline value) after treatment with DHT (TMPRSS2 mRNA; ASO 1.0 μM): 122 % baseline value | TMPRSS2 mRNA levels (% baseline value) after treatment with DHT (TMPRSS2 mRNA; ASO 5.0 μM): 114 % baseline value | TMPRSS2 mRNA levels (% baseline value) after treatment with R1881 (TMPRSS2 mRNA; ASO 0.04 μM): 136 % baseline value | TMPRSS2 mRNA levels (% baseline value) after treatment with R1881 (TMPRSS2 mRNA; ASO 0.20 μM): 134 % baseline value | TMPRSS2 mRNA levels (% baseline value) after treatment with R1881 (TMPRSS2 mRNA; ASO 1.0 μM): 125 % baseline value | TMPRSS2 mRNA levels (% baseline value) after treatment with R1881 (TMPRSS2 mRNA; ASO 5.0 μM): 122 % baseline value | TMPRSS2 mRNA levels (% baseline value) of cells without AR agonist treatment (TMPRSS2 mRNA; ASO 0.04 μM): 95 % baseline value | TMPRSS2 mRNA levels (% baseline value) of cells without AR agonist treatment (TMPRSS2 mRNA; ASO 0.20 μM): 117 % baseline value | TMPRSS2 mRNA levels (% baseline value) of cells without AR agonist treatment (TMPRSS2 mRNA; ASO 1.0 μM): 77 % baseline value | TMPRSS2 mRNA levels (% baseline value) of cells without AR agonist treatment (TMPRSS2 mRNA; ASO 5.0 μM): 73 % baseline value | Percent inhibition of AR mRNA (AR mRNA [5]; 0.02 μM): 0% | Percent inhibition of AR mRNA (AR mRNA [5]; 0.1 μM): 0% | Percent inhibition of AR mRNA (AR mRNA [5]; 0.5 μM): 0% | Percent inhibition of AR mRNA (AR mRNA [5]; 10 μM): 17%
